Measurements: patent US6610653B1, “Therapeutic preparation for inhalation” (priority 1994, dated 2003)

How the values were obtained:
[1] = Selection of enhancers: inhaled insulin/enhancer powder in rat model, blood glucose levels; assay type: in vivo; details: for Effect (decrease in blood glucose level): rat, inhalation; for usefulness as enhancer of insulin absorption in the lung: tested as enhancer in the method of the invention, rat model; for Effect (decrease in blood glucose level): key: +: significant decrease in blood glucose level; (+): moderate decrease in blood glucose level; −: no or very small decrease in blood glucose level
Method: Each of the compounds listed in Table III was tested for its ability to enhance uptake of insulin, and thus affect blood glucose levels, in a rat model. Various forms of insulin were employed: recombinant or semisynthetic human or bovine. […] The powder was administered to rats by inhalation, and the blood glucose levels of the rats were subsequently monitored. These levels were compared to the corresponding values obtained from rats which had inhaled insulin formulations without enhancer.

CaCo-2 cell monolayer = experiment: In vitro CaCo-2 epithelial cell monolayer transport assay; assay type: in vitro ADME
Description: A standard in vitro assay utilizing an epithelial cell line, CaCo-2 (available through the American Type Culture Collection (ATCC), Rockville, Md., USA), has been developed to assess the ability of various enhancer compounds to promote transport of insulin and other markers across an epithelial cell monolayer, as a model for the epithelial cell layer which functions in the lung to separate the alveolus from the pulmonary blood supply. In this assay, the enhancer and insulin or other marker are dissolved in aqueous solution at various proportions and/or concentrations, and applied to the apical side of the cell monolayer. After 60 min incubation at 37° C. and 95% RH (relative humidity), the amount of the marker on the basolateral side of the cells is determined: for example, by use of a radioactively labelled marker. […] This concentration of sodium caprate (16 mM) was also found to promote absorption of insulin across the cell monolayer. The amount of insulin which passed across the monolayer doubled in the presence of 16 mM sodium caprate, compared to the amount in the absence of any enhancer. It is expected that at higher concentrations of sodium caprate, the permeability of the cells will be further increased; however, the potential cytotoxicity of sodium caprate may prevent the use of substantially higher concentrations of this particular enhancer.

[2] = Insulin combined with sodium caprate in various w/w proportions, in vivo models
Description: In general, it is desirable to keep the ratio of insulin to enhancer as high as possible, within the range that permits fast and efficient enhancement of insulin absorption. This is important in order to minimize the risk of adverse effects, both local and systemic, attributable to the enhancer. The optimal ratio of insulin to enhancer can be ascertained for any given enhancer by testing various proportions in in vivo models such as described herein. For example, insulin was combined with sodium caprate in the following w/w proportions: 50/50, 75/25, 82.5/17.5, and 90/10. […] Other enhancers may have higher or lower optimal concentrations relative to insulin, and each individual enhancer must therefore be separately tested.

[3] = Enhancer:Insulin:lactose 2:4:94
[4] = Enhancer:Insulin:lactose 4:4:92
[5] = Enhancer:Insulin:lactose 25:75:0

CCCCCCCCCC(=O)OC[C@H](COP(=O)([O-])OCC[N+](C)(C)C)OC(=O)CCCCCCCCC [Didecanoylphospatidylcholine]
Effect (decrease in blood glucose level) ([1]; Enhancer:Insulin:lactose 4:4:94): −

CCCCCCCC(=O)OCC(COP(=O)([O-])OCC[N+](C)(C)C)OC(=O)CCCCCCC (stereo not shown) [Dioctanoylphosphatidylcholine]
Effect (decrease in blood glucose level) [1, 3]: (+)

CCCCCCCCOC1O[C@H](CO)[C@@H](O)[C@H](O)[C@H]1O (stereo partly shown) [Octylglucopyranoside]
Effect (decrease in blood glucose level) [1, 4]: (+)
usefulness as enhancer of insulin absorption in the lung [1]: some absorption enhancing properties

CCCCCCCCCC(=O)[O-].[K+] [Potassium caprate]
Effect (decrease in blood glucose level) ([1]; Enhancer:Insulin:lactose 27:73:0): +
usefulness as enhancer of insulin absorption in the lung [1]: effective

CCCCCCCC/C=C\CCCCCCCC(=O)[O-].[K+] [Potassium oleate]
Effect (decrease in blood glucose level) [1, 4]: +

CCCCCCCCCC(=O)[O-].[Na+] [Sodium caprate]
amount of insulin which passed across the monolayer, compared to absence of any enhancer (CaCo-2 cell monolayer; 16 mM sodium caprate): doubled
amount of marker (mannitol) which appears on the basolateral side, insulin added (CaCo-2 cell monolayer; 60 min at 37° C., 1:3 sodium caprate:insulin by weight, FIG. 8): true even when insulin is added
amount of marker (mannitol) which appears on the basolateral side (CaCo-2 cell monolayer; 60 min at 37° C., up to 16 mM sodium caprate, FIG. 7): dependent upon the concentration of enhancer used
improvement in absorption of insulin ([2]; insulin/sodium caprate w/w 50/50 (50% sodium caprate)): Significant improvement
improvement in absorption of insulin ([2]; insulin/sodium caprate w/w 75/25 (25% sodium caprate)): Significant improvement
improvement in absorption of insulin ([2]; insulin/sodium caprate w/w 82.5/17.5 (17.5% sodium caprate)): intermediate
improvement in absorption of insulin ([2]; insulin/sodium caprate w/w 90/10 (10% sodium caprate)): poor improvement
lowest effective concentration of sodium caprate ([2]; proportion of enhancer relative solely to insulin, 'probably 20-25%'): 15-25%
Effect (decrease in blood glucose level) [1, 4]: +
Effect (decrease in blood glucose level) ([1]; Enhancer:Insulin:lactose 10:90:0): (+)
Effect (decrease in blood glucose level) ([1]; Enhancer:Insulin:lactose 17.5:82.5:0): (+)
Effect (decrease in blood glucose level) [1, 5]: +
usefulness as enhancer of insulin absorption in the lung [1]: perform well

CCCCCCCC(=O)[O-].[Na+] [Sodium caprylate]
Effect (decrease in blood glucose level) [1, 5]: +

C[C@H](CCC(=O)NCC(=O)[O-])[C@H]1CC[C@H]2[C@@H]3[C@H](O)C[C@@H]4C[C@H](O)CC[C@]4(C)[C@H]3C[C@H](O)[C@]12C.[Na+] [Sodium glycocholate]
Effect (decrease in blood glucose level) [1, 4]: +
usefulness as enhancer of insulin absorption in the lung [1]: effectively enhance insulin absorption in the lung

CCCCCCCCCCCC(=O)[O-].[Na+] [Sodium laurate]
Effect (decrease in blood glucose level) [1, 5]: (+)
usefulness as enhancer of insulin absorption in the lung [1]: perform well

CCCCCCCCCCCCCC(=O)[O-].[Na+] [Sodium myristate]
Effect (decrease in blood glucose level) ([1]; Enhancer:Insulin:lactose 30:70:0): +
usefulness as enhancer of insulin absorption in the lung [1]: perform well

C[C@H](CCC(=O)NCCS(=O)(=O)O)[C@H]1CC[C@H]2[C@@H]3[C@H](O)C[C@@H]4C[C@H](O)CC[C@]4(C)[C@H]3C[C@H](O)[C@]12C [Sodium taurocholate]
Effect (decrease in blood glucose level) [1, 4]: +
usefulness as enhancer of insulin absorption in the lung [1]: effectively enhance insulin absorption in the lung

CC(=O)OC1CC2(C)C(CC(O)C3C4(C)CCC(O)C(C)C4CCC32C)C1=C(CCCC(C)C)C(=O)NCCS(=O)(=O)O (stereo not shown) [Sodium taurodihydrofusidate]
Effect (decrease in blood glucose level) [1, 3]: +
usefulness as enhancer of insulin absorption in the lung [1]: effectively enhance insulin absorption in the lung

C[C@H](CCC(=O)[O-])[C@H]1CC[C@H]2[C@@H]3[C@@H](O)C[C@@H]4C[C@H](O)CC[C@]4(C)[C@H]3CC[C@]12C.[Na+] [Sodium ursodeoxycholate]
Effect (decrease in blood glucose level) [1, 4]: +
usefulness as enhancer of insulin absorption in the lung [1]: effectively enhance insulin absorption in the lung

Dimethyl-β-cyclodextrin
Effect (decrease in blood glucose level) ([1]; Enhancer:Insulin:lactose 75:25:0): +
usefulness as enhancer of insulin absorption in the lung [1]: absorption enhancing effect

Lysine caprate
Effect (decrease in blood glucose level) ([1]; Enhancer:Insulin:lactose 35:65:0): +
usefulness as enhancer of insulin absorption in the lung [1]: effective

Lysophosphatidylcholine
Effect (decrease in blood glucose level) [1, 4]: +
usefulness as enhancer of insulin absorption in the lung [1]: effective enhancer

sodium salt of ethylenediaminetetraacetic acid
usefulness as enhancer of insulin absorption in the lung [1]: ineffective
